Several values for one entry are separate records, joined by “and”; a condition that tells them apart may be missing. Equal values may be shown once.
Assays:
retinal ganglion cells [1] = experiment: Cell viability studies: labeled retinal ganglion cells surviving after 24 hrs in mixed retinal cultures; assay type: cell-based, rat; conditions: for reduction in the number of dead cells / protection against cell death triggered by BzATP: 50 uM BzATP + 100 nM A3 agonist
Method: (§1) Pups PD2-6 from untimed pregnant Long-Evan rats (Jackson Laboratory Inc., Bar Harbor, Me.) were back-labeled by the injection of FluoroGold derivative aminostilbamidine (Molecular Probes, Eugene, Oreg.) based upon standard protocols. […] Using a Hamilton syringe affixed to a micromanipulator, a needle was inserted 0.8 mm lateral from the midline and 0.8 mm anterior to Bregma's line and a total of 2.5 μl dye was delivered to each side at a depth of 2 mm and 1 mm. The needle was retracted after a delay of 2 min to allow dye absorption and the wound was closed with 2-3 sutures. Preliminary examination of labeled retinal whole mounts confirmed an even distribution of dye, showing all cells were stained 2 days after injection, with no further increase in the number of labeled cells in subsequent days. Consequently, retinas containing labeled ganglion cells were dissociated 2-6 days after injection. Animals were sacrificed by i.p. injection of 50/5 mg/kg Ketamine/Xylazine followed by an overdose, in accordance with University of Pennsylvania IACUC approved protocols and the ARVO Statement on the Use of Animals in Ophthalmic and Vision Research.
The retina was dissected from each globe, washed in sterile Hanks' balanced salt solution (HBSS, Gibco, Inc Invitrogen Corp., Carlsbad, Calif.), then incubated in HBSS containing activated papain (4.5 U/ml; Worthington Biochemical Corp., Lakewood, N.J.) for 12 minutes at 37° C. Retinas were washed twice and triturated 50 times with a 1-ml glass pipette to dissociate cells. Cells were plated onto twelve 12-mm coverslips previously coated with poly-L-lysine. […] Retinal cells were incubated at 37° C. with 5% CO2.
Drugs were added to the culture medium at the time when cells were plated onto coverslips. […] All counts were performed in a masked fashion. In experiments involving antagonist pretreatment, drugs were added to the medium at the time of plating. After preincubation at 37° C., stock concentrations of BzATP were added directly to the cells to give the final concentration shown.
Data are presented as mean±standard error of the mean. Significance was evaluated using a Student's unpaired t test, with a p value <0.05 signifying significance. For cell viability studies, the number of experiments, n, represents the number of coverslips from which 80 fields were measured and averaged. All values were normalized to the mean control level for that day's matched set of experiments to control for variation in plating efficiency.

retinal ganglion cells [2] = experiment: Intracellular Ca2+ measurements (fura-2): BzATP-triggered Ca2+ elevation in ganglion cells from mixed retinal cultures; assay type: cell-based, rat
Method: as §1
The retina was dissected from each globe, washed in sterile Hanks' balanced salt solution (HBSS, Gibco, Inc Invitrogen Corp., Carlsbad, Calif.), then incubated in HBSS containing activated papain (4.5 U/ml; Worthington Biochemical Corp., Lakewood, N.J.) for 12 minutes at 37° C. Retinas were washed twice and triturated 50 times with a 1-ml glass pipette to dissociate cells. Cells were plated onto twelve 12-mm coverslips previously coated with poly-L-lysine. The basic growth medium contained Neurobasal medium with 2 mM glutamine, 100 μg/ml gentamicin, 0.025 ml/ml B27 supplement (all Invitrogen Inc., Carlsbad, Calif.), 0.7% methylcellulose (Stemcell Technologies Inc., Vancouver, BC, Canada) and 2.5% rat serum (Cocalico Biologicals Inc., Reamstown, Pa.). Retinal cells were incubated at 37° C. with 5% CO2.
(§2) Unlabeled RGCs grown on coverslips for 24 hrs were loaded with 10 μM fura-2 and 2% pluoronic (Molecular Probes, Eugene, Oreg.) for 60-90 min at room temperature, rinsed and maintained in fura-2-free solution for 30 min before data acquisition began. The coverslips were mounted on a Nikon Diaphot inverted microscope and visualized with a 40× objective. […] To obtain Ca^2+ measurements, the field was alternatively excited at 340 nm and 380 nm with a scanning monocrometer and the fluorescence emitted >520 nm from a region of interest surrounding individual retinal ganglion cells was imaged with a CCD camera and analyzed (all Photon Technologies International, Inc., Lawrenceville, N.J.). Cells were perfused with a control solution at the start of Ca^2+imaging experiments containing (in mM) 105 NaCl, 4.5 KCl, 2.8 NaHepes, 7.2 Hepes acid, 1.3 CaCl2, 0.5 MgCl2, 5 glucose, 75 mannitol, pH 7.4. Drugs were dissolved into the control solution. Calibration was performed separately on each cell after the experiment by perfusing cells in the presence of 5 μM ionomycin and control solution (with 1.3 mM Ca2+) followed by ionomycin in the base solution without Ca^2+ and with the addition of 5 mM EGTA (pH 7.4). The 340/380 ratio was converted to Ca^2+ concentration as previously described. All experiments were performed at room temperature.
In Ca^2+ experiments, n refers to the number of responses tested. The BzATP concentration-response curve was fit with a standard exponential function y=y0+ae(−bx) using Sigmaplot software (SPSS Inc, Chicago, Ill.). The % block of Ca2+ elevations is defined as 100*(a−b)/a, where a is the response under control conditions and b is the response under experimental conditions. All materials are from Sigma Chemical Corp, (St. Louis, Mo.) unless otherwise indicated.

[3] = test system: isolated retinal ganglion cells; experiment: Intracellular Ca2+ measurements: BzATP-triggered Ca2+ elevation in isolated (immunopanned) retinal ganglion cells; assay type: cell-based, rat; conditions: 50 μM BzATP 15 sec, purified ganglion cells
Method: as §2
(§3) Purification of ganglion cells using the panning procedure is based upon published methods (Hartwick et al., 2004). Neonatal rat retinas (PD 7-12) were dissected and incubated at 37° C. for 30 min in HBSS containing 15 U/mL papain, 0.2 mg/mL DLcysteine and 0.004% DNAse I (Worthington/Cooper, Lakewood, N.J.). The tissue was triturated in HBSS with 1.5 mg/ml ovomucoid (Worthington/Cooper, Lakewood, N.J.), 1.5 mg/ml BSA and 0.004% DNase I, centrifuged at 200 g for 11 minutes at room temperature, and cells were rewashed with 10 mg/ml ovomucoid-BSA solution. After centrifugation, cells were resuspended with PBS containing 0.2 mg/ml BSA and 5 μg/ml insulin and filtered through a Nitex mesh (Small Parts Inc, Miami Lakes, Fla.). […]

isolated ganglion cells = experiment: Glutamate release from isolated ganglion cells (GDH/NADH fluorescence); assay type: cell-based, rat
Method: as §3
The measurement of glutamate was analogous to that used previously by the Haydon laboratory. […] NADH fluorescence is excited using a xenon arc lamp (100 watts) with a D360/10x exciter filter (Chroma Technology Corp., Brattleboro, Vt.), 510DRLP dichroic mirror (Omega Optical, Brattleboro, Vt.), and 515EFLP emission filter (Omega Optical). Images collected before, during and after the BzATP stimulus indicate the level of fluorescence. The percent increase in fluorescence, figured by dividing the change in fluorescence (ΔF) by the fluorescence level before stimulation (F0), represents the level of glutamate release. […]

human A2B receptors = biological target: T1, human A2B receptors (Homo sapiens, UniProt P29275); conditions: cited from earlier work
T1 sequence (P29275 1-332): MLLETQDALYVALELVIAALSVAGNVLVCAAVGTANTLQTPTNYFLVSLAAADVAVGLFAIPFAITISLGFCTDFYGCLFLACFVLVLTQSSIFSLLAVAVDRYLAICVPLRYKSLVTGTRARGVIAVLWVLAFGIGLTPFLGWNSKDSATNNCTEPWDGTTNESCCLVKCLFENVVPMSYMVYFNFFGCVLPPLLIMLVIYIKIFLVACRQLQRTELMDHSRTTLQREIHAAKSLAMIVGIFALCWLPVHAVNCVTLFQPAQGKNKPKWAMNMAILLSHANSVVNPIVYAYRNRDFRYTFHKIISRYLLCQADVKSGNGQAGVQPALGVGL

[4] = 50 uM BzATP + 100 nM A3 agonist (30 min before and during), 24 hrs

Structure (SMILES): CN[C@H](CC(=O)O)C(=O)O [NMDA, N-methyl-D-aspartate]
- ganglion cell survival, % of control (retinal ganglion cells [1]; 100 uM NMDA alone, 24 hrs): 69.9±3.2 % of control

Structure (SMILES): Nc1ncnc2c1ncn2[C@@H]1O[C@H](CO)[C@@H](O)[C@H]1O [adenosine]
- ganglion cell survival (retinal ganglion cells [1]; 50 μM BzATP + 300 uM adenosine (30 min before), 24 hours): 91.2±3.5%
- ganglion cell survival, % of control (retinal ganglion cells [1]; 50 μM BzATP + 1 mM adenosine, 24 hours): 92.4±2.5 % of control
- ganglion cell counts, % of control (retinal ganglion cells [1]; 100 uM NMDA + 300 uM adenosine, 24 hrs): 102.1±3.9 % of control
- block of Ca2+ increase compared to BzATP alone (retinal ganglion cells [2]; 300 uM adenosine, two minute 50 uM BzATP): 85%
- effect on Ca2+ response to brief 50 uM BzATP (retinal ganglion cells [2]; adenosine added with alternate BzATP applications, reversible, repeatable): greatly reduced the response
- peak Ca2+ levels (retinal ganglion cells [2]; two minute application of 50 uM BzATP in presence of 300 uM adenosine (2 min pretreatment), n=7): 215 ± 62 nM

Structure (SMILES): CC12CC3CC(C)(C1)CC(N)(C3)C2 [memantine]
- effect on ganglion cell survival (retinal ganglion cells [1]; 50 μM BzATP + 100 μM memantine, 24 hrs): neuroprotective
- inhibition at 30 µM ([3]; Rattus norvegicus, 30 μM memantine, read-out: inhibition of Ca2+ response to BzATP): 18.4 ± 4.2%
- reduction of Ca2+ elevation triggered by BzATP (retinal ganglion cells [2]; 30 μM memantine, in 4/7 experiments, effect variable, 50 μM BzATP): 65.5±6.7%

Structure (SMILES): CCOc1ccc(Nc2ccc(/C(=C3C=C/C(=[N+](/CC)Cc4cccc(S(=O)(=O)[O-])c4)C=C/3C)c3ccc(N(CC)Cc4cccc(S(=O)(=O)[O-])c4)cc3C)cc2)cc1.[Na+] [brilliant blue G]
- net absorbance change (glutamate release) in response to BzATP (isolated ganglion cells; in presence of brilliant blue G, n=3): −0.9±0.9%

Structure (SMILES): Nc1ncnc2c1ncn2[C@@H]1O[C@H](COP(=O)(O)OP(=O)(O)OP(=O)(O)O)[C@@H](OC(=O)c2ccc(C(=O)c3ccccc3)cc2)[C@H]1O [BzATP]
- ganglion cell survival, % of control (retinal ganglion cells [1]; 50 μM BzATP alone, 24 hrs): 62.9 % of control and 68.9±2.3 % of control and 56.8 % of control and 79.0±2.9 % of control
- increase in absorbance at 360 nm (glutamate release) (isolated ganglion cells; BzATP alone, 17 applications from 7 coverslips): 17.1±4.0%
- mean levels of Ca2+ (retinal ganglion cells [2]; first exposure to 50 μM BzATP alone, 15 sec): 647.0 ± 80.7 nM
- mean levels of Ca2+ (retinal ganglion cells [2]; third exposure to BzATP after removal of CI-IB-MECA): 600.3 ± 227.6 nM

Structure (SMILES): N[C@@H](CCCP(=O)(O)O)C(=O)O [APV, D-amino-phosphonovalerate]
- ganglion cell survival levels (retinal ganglion cells [1]; 50 μM BzATP + APV, 24 hrs): 77.8±5.9%
- block of Ca2+ response to BzATP ([3]; 100 μM APV): 36.1±7.5%
- mean reduction of Ca2+ elevation triggered by BzATP (retinal ganglion cells [2]; APV (100 μM in FIG. 2C, 300 μM in summary), 50 μM BzATP 15 sec): 39.7±12.6%

Structure (SMILES): C[C@]12N[C@H](Cc3ccccc31)c1ccccc12 [MK-801]
- ganglion cell survival, % of control (retinal ganglion cells [1]; 50 μM BzATP + 10 μM MK-801, 24 hrs): 102.7±3.2 % of control
- decrease of Ca2+ elevation triggered by BzATP ([3]; 10 μM MK-801): 50.1±5.5%
- decrease of Ca2+ elevation triggered by BzATP (retinal ganglion cells [2]; 10 μM MK-801, 50 μM BzATP 15 sec, peak vs mean response before and after): 55.1±6.5%

Structure (SMILES): CNC(=O)[C@H]1O[C@@H](n2cnc3c(NCc4cccc(I)c4)ncnc32)[C@H](O)[C@@H]1O [IB-MECA]
- ganglion cell survival, % of control (retinal ganglion cells [1]; [4]): 98.5±2.7 % of control
- reduction in the number of dead cells / protection against cell death triggered by BzATP (retinal ganglion cells [1]; 24 hrs): 95%

Structure (SMILES): CNC(=O)C1OC(n2cnc3c(NCc4cccc(I)c4)nc(Cl)nc32)C(O)C1O (stereo not shown) [CI-IB-MECA, 2-chloro-N6-(3-iodobenzyl)-adenosine-5-N-methyluronamide]
- ganglion cell survival, % of control (retinal ganglion cells [1]; [4]): 80.1±4.7 % of control
- reduction in the number of dead cells / protection against cell death triggered by BzATP (retinal ganglion cells [1]; 24 hrs): 54%
- Kd (human A2B receptors): > 100 µM
- block of Ca2+ increase, normalized to peak of first response (retinal ganglion cells [2]; 100 nM CI-IB-MECA, 50 μM BzATP 15 sec): 81%
- mean levels of Ca2+ (retinal ganglion cells [2]; second BzATP application in presence of 100 nM CI-IB-MECA): 110.7 ± 32.8 nM
